Reference: BindingDB's records for patent US9670231 (BeiGene, Ltd, 2017)

Tests used:
[1] = molecular target: Serine/threonine-protein kinase B-raf [V600E] (Homo sapiens, UniProt P15056, V600E); experiment: Not found
[2] = molecular target: RAF proto-oncogene serine/threonine-protein kinase [Y340D,Y341D] (Homo sapiens, UniProt P04049, Y340D/Y341D); experiment: Not found
Source text: Not found

RAF proto-oncogene serine/threonine-protein kinase [Y340D,Y341D], sequence (P04049 whole entry Y340D/Y341D): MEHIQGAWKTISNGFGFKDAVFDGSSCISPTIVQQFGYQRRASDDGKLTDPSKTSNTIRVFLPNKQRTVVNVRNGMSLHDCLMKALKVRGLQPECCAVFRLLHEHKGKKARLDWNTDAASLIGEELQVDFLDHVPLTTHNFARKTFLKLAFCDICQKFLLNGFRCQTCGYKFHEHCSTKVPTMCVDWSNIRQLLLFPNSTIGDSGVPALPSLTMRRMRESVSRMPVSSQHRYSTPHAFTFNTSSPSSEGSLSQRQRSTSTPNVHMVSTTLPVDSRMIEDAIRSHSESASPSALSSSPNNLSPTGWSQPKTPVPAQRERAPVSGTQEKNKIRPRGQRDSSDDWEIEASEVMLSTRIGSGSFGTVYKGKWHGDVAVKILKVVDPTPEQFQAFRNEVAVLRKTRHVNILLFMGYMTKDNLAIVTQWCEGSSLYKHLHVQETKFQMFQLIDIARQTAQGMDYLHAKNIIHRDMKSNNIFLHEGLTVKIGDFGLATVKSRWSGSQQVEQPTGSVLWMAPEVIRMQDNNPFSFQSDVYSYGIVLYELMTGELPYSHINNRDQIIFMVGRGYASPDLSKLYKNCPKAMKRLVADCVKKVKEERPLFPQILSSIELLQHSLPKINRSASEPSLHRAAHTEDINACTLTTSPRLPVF
Serine/threonine-protein kinase B-raf [V600E], sequence (P15056 2-766 V600E limits assumed): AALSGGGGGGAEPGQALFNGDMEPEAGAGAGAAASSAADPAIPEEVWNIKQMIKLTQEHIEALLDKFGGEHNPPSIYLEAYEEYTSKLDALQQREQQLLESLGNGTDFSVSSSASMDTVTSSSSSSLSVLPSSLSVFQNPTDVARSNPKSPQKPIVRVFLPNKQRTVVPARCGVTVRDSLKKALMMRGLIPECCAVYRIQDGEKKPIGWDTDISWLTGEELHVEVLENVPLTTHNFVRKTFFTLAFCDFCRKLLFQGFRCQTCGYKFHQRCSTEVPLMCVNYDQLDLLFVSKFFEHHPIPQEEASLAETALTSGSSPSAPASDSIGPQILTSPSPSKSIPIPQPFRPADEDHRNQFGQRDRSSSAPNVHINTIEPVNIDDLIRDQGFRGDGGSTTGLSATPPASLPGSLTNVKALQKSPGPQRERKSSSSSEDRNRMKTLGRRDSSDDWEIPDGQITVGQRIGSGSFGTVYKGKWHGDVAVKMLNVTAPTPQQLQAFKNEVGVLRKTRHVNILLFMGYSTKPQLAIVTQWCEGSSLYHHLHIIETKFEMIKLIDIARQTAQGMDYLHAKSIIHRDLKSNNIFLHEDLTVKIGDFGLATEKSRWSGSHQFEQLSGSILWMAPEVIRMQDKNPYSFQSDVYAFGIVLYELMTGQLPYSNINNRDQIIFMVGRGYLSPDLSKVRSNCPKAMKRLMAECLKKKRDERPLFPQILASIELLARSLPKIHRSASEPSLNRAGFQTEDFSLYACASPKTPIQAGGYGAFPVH

Structure (SMILES) | IC50 [1] | IC50 [2]
CN(C)[C@H]1CCN(Cc2ccc(C(=O)N[C@@H]3[C@H]4Oc5ccc(Oc6ccnc7c6CCC(=O)N7)cc5[C@@H]34)cc2C(F)(F)F)C1 [US9670231, 1.9] | 17 nM | –
O=C1CCc2c(Oc3ccc4c(c3)[C@H]3[C@H](NC(=O)c5ccc(CN6CCC[C@H](O)C6)c(C(F)(F)F)c5)[C@H]3O4)ccnc2N1 [US9670231, 1.15] | – | 6.2 nM
CN(C)[C@@H]1CCN(Cc2ccc(C(=O)N[C@@H]3[C@H]4Oc5ccc(Oc6ccnc7c6CCC(=O)N7)cc5[C@@H]34)cc2C(F)(F)F)C1 [US9670231, 1.10] | 14 nM | –

More lines, now with the values ahead:

IC50 [1] | IC50 [2] | Structure (SMILES)
10.4 nM | – | O=C1CCc2c(Oc3ccc4c(c3)[C@H]3[C@H](NC(=O)c5ccc(CN6CCN(CCO)CC6)c(C(F)(F)F)c5)[C@H]3O4)ccnc2N1 [US9670231, 1.17]
11 nM | 2.1 nM | CN(C)C1CCN(Cc2ccc(C(=O)N[C@@H]3[C@H]4Oc5ccc(Oc6ccnc7c6CCC(=O)N7)cc5[C@@H]34)cc2C(F)(F)F)CC1 [US9670231, 1.20]
14 nM | 2.5 nM | CN1CCN(CCOc2ccc(C(=O)N[C@@H]3[C@H]4Oc5ccc(Oc6ccnc7c6CCC(=O)N7)cc5[C@@H]34)cc2C(F)(F)F)CC1 [US9670231, 1.52]
11 nM | – | CN1CCN(Cc2ccc(C(=O)N[C@@H]3[C@H]4Oc5ccc(Oc6ccnc7c6COC(=O)N7)cc5[C@@H]34)cc2C(F)(F)F)CC1 [US9670231, 2.2]
